Laboratory results taken from patent publication EP4129319A1, “PORE-FORMING ANTIMICROBIAL PEPTIDES” (priority 2021, dated 2023).
pEC50: −log10 of the molar value. Like-named read-outs stand apart in the source and are kept apart here. Ends that are not written are not given here.

Columns and labels:
Calcein leakage assay = assay type: biochemical; conditions: calcein leakage, POPC:POPG (1:1 mol/mol) LUVs; for Extent of leakage (in percentage) at increasing peptide-to-lipid ratio (mol/mol) 1:10: peptide-to-lipid ratio 1:10 (mol/mol); for Extent of leakage (in percentage) at increasing peptide-to-lipid ratio (mol/mol) 1:20: peptide-to-lipid ratio 1:20 (mol/mol); for Extent of leakage (in percentage) at increasing peptide-to-lipid ratio (mol/mol) 1:50: peptide-to-lipid ratio 1:50 (mol/mol); for Extent of leakage (in percentage) at increasing peptide-to-lipid ratio (mol/mol) 1:100: peptide-to-lipid ratio 1:100 (mol/mol)
Protocol: (§1) Chemicals. […] (Prague, Czech Republic), and Caslo ApS (Kongens Lyngby, Denmark). […] The bacterial stock was stored at -80°C.
Calcein leakage assay. Pore-forming activity of the peptides was tested by their ability to leak the self-quenching fluorescent dye calcein entrapped within POPC:POPG (1:1 mol/mol) large unilamellar vesicles (LUVs). After mixing DiD to the lipid mixture (in the ratio 1:500 mol/mol), a thin lipid film was created by evaporating of the chloroform, traces of which were removed by desiccating overnight. The lipid film was then dissolved in calcein buffer, followed by vigorous vortexing. The lipid suspension was subsequently subjected to 10 freeze-thaw cycles. To obtain uniform LUVs, the sample was passed 50 times back and forth through an extruder stacked with 100 nm pore size polycarbonate membrane filter. Afterwards, the untrapped calcein was removed on a HiTrap Desalting Column (with Sephadex G-25 Superfine resin) by washing with PBS buffer. The concentration of the lipid suspension was then adjusted to 0.02 mM. The concentration of the peptide solution was 0.1 mM. The inventors monitored the peptide-induced release of calcein from LUVs by the increase in fluorescence intensity after adding increasing amounts of peptides to the LUVs under constant stirring at 25 °C. The investigated range of peptide/lipid molecular ratio was from 1:100 to 1:10. The excitation and emission wavelengths were set to 495 nm and 520 nm, respectively. Maximum fluorescence intensity was obtained by disrupting all the vesicles in the end by adding 10% Triton X-100. Experiments were performed in triplicates with independently prepared lipid vesicles.

[1] = test system: Gram-negative Escherichia coli TOP10 strain; assay type: cell-based; conditions: for Antibacterial activity (MIC in µM) E. coli TOP10: broth microdilution assay
Protocol: as §1
(§2) Broth microdilution assay. Antimicrobial activity of the peptides was investigated against Gram-negative Escherichia coli TOP10 strain and Gram-positive Staphylococcus carnosus CCM 4838T using broth microdilution assay, based on which the inventors determined the bacterial minimum inhibition concentration (MIC). After cross streaking with bacteria, the petri dishes (with MHA) were incubated for 24 h at 37 °C. Overnight grown cultures were then sub-cultured for 4-6 h at 37 °C in test tubes containing MHB. The sub-cultured solutions were subsequently diluted to a standard concentration of 10^6 colony forming units (CFU) per mL. Cell counts were determined by measuring the optical density at 600 nm. In a flat-bottomed 96 well plate, the inventors prepared a dilution series for the peptides and for the reference antibiotic ampicillin from 50 to 0.1 µM concentration, which was then inoculated with bacteria and incubated for 24 h at 37 °C. Growth control wells were free from peptides or ampicillin to show the viability of the bacteria, and sterility control wells were free from bacterial inoculation to verify the sterility of the medium. The bacterial growth was visually evaluated based on the turbidity. MIC was determined as the lowest concentrated well where no visible bacterial growth was observed. To test the bacteriostatic or bacteriocidal activity of the peptides, 50 µl solution from the highest concentrated well (i.e., 50 µM) was transferred to a test tube containing 4 mL sterile MHB and incubated for 24 h at 37 °C under constant stirring. Streaking of the same solution was done on MHA containing petri dishes and incubated for 24 h at 37 °C to confirm the morphology of the colonies grown. Experiments were performed in triplicates.

[2] = test system: Gram-positive Staphylococcus carnosus CCM 4838T; assay type: cell-based
Protocol: as §1, §2

[3] = test system: human red blood cells (HRBCs); assay type: cell-based; conditions: for EC50: hemolysis assay, HRBCs, read-out: Toxicity (EC50 in µM) HRBCs
Protocol: as §1
Hemolysis assay. Hemolytic toxicity of the peptides was evaluated from their ability to lyse the fresh human red blood cells (HRBCs) collected from the University Hospital (Brno, Czech Republic). To obtain the erythrocyte pellets, the blood samples were centrifuged twice at 700×g and subsequently, once at 1000×g, each for 8 min. at 4 °C, which was followed by thorough washing with PBS. Resuspension of the pellets was done in PBS to obtain 0.5% (vol/vol) RBC suspension. In a well plate with 96 V-shaped bottom wells, the peptides were added in a dilution series from 0.1 to 50 µM concentration. Subsequently, HRBC suspension was added in each well. Negative control wells contained only PBS and HRBC suspension without any peptide (i.e., 0% lysis), and positive control wells included 5 µM melittin in the HRBC suspension. After incubation for 1 h at 37 °C, the well plates were centrifuged at 1000×g for 10 min. at 4 °C. Subsequently, the supernatant was collected in a flat-bottomed well plate and the optical density of the released hemoglobin was measured for each well at 415 nm wavelength. The calculated absorbances from the wells were then normalized against the averaged absorbances of the positive and the negative control wells. EC50 value was calculated from the normalized absorbances indicating 50% hemolysis of HRBCs. Experiments were performed in triplicates with three independent blood samples.

[4] = test system: human dermal fibroblast (HDF) cell lines; assay: Neutral red uptake assay (cytotoxicity); assay type: cell-based
Protocol: Neutral red uptake assay. To evaluate the cytotoxicity of the peptides against human dermal fibroblast (HDF) cell lines, the inventors purchased the neutral red uptake assay from Essence Line (Praha, Czech Republic). The initial cell culture was sub-cultured in supplemented Dulbecco's Modified Eagle Medium (DMEM) and diluted to a cell density of 1 × 10^5 cells/mL. The diluted culture was then seeded into the wells (1 × 10^4

[5] = test system: Acinetobacter baumanni GSAB 164; assay type: cell-based; conditions: ESKAPE panel; strain not given, ampicillin > 16 fits the 16-to-0.03 µM series of Evotec
Protocol: as §2
(§3) The antimicrobial susceptibility test of the most promising peptide against the recalcitrant ESKAPE pathogens was purchased from Evotec (Macclesfield, UK) for the following strains: Enterococcus faecium ATCC 700221, Staphylococcus aureus NRS 1, Klebsiella pneumoniae ATCC 700603, Acinetobacter baumanni GSAB 164, Pseudomonas aeruginosa ATCC 13437, Escherichia coli ATCC 25922 and Enterobacter aerogenes B207A, and was purchased from Essence Line (Praha, Czech Republic) against the following strains: Enterococcus faecium ATCC 29212, Enterococcus hirae ATCC 10541, Staphylococcus aureus ATCC 6538, ATCC 29213, Methicillin-resistant Staphylococcus aureus (MRSA) CNCTC 7452, Klebsiella pneumoniae ATCC 10031, Acinetobacter baumanni ATCC 19606, Pseudomonas aeruginosa ATCC 15442 and Escherichia coli ATCC 10536 and ATCC 35218. […]

[6] = test system: Enterococcus faecium ATCC 700221; assay type: cell-based; conditions: ESKAPE panel; strain not given, ampicillin > 16 fits the 16-to-0.03 µM series of Evotec
Protocol: as §2, §3

[7] = test system: Escherichia coli ATCC 25922; assay type: cell-based; conditions: strain not given, assigned to the Evotec series
Protocol: as §2, §3

[8] = test system: Klebsiella pneumoniae ATCC 700603; assay type: cell-based; conditions: ESKAPE panel; strain not given, ampicillin > 16 fits the 16-to-0.03 µM series of Evotec
Protocol: as §2, §3

[9] = 24 h at 37 °C, dilution series 50 to 0.1 µM

Substance	Extent of leakage (in percentage) at increasing peptide-to-lipid ratio (mol/mol) 1:10 (Calcein leakage assay) [percentage]	Extent of leakage (in percentage) at increasing peptide-to-lipid ratio (mol/mol) 1:20 (Calcein leakage assay) [percentage]	Extent of leakage (in percentage) at increasing peptide-to-lipid ratio (mol/mol) 1:50 (Calcein leakage assay) [percentage]	Extent of leakage (in percentage) at increasing peptide-to-lipid ratio (mol/mol) 1:100 (Calcein leakage assay) [percentage]	Antibacterial activity (MIC in µM) E. coli TOP10 [1] [µM]	Antibacterial activity (MIC in µM) S. carnosus ([2]; broth microdilution assay, S. carnosus) [µM]	pEC50 [3]	MIC against E. coli [1, 9] [µM]	times lower MIC than the MIC of ampicillin, E. coli ([1]; ratio to ampicillin)	MIC against S. carnosus [2, 9] [µM]	times higher MIC than that of ampicillin, S. carnosus ([2]; ratio to ampicillin)	EC50 [3] [µM]	EC50 ([4]; HDFs, column stands under the head 'Hemolysis assay', read-out: Toxicity (EC50 in µM) HDFs) [µM]	Antibacterial activity (MIC in µM) S. carnosus ([2]; CCM 4838) [µM]	MIC against A. baumannii [5] [µM]	MIC against E. faecium [6] [µM]	MIC against E. coli (ESKAPE panel) [7] [µM]	MIC against K. pneumoniae [8] [µM]	pEC50 [4]
KKKKLKKFFKKLIQLINQLFDDLDDFKKKK-NH2 [KDFD24+9-NH2]	98.7 ± 3.2	81.5 ± 6.8	42.6 ± 11.5	13.0 ± 5.2	12.5	12.5	< 4.30	–	–	–	–	–	–	–	–	–	–	–	–
KKKKLKKILKKLFQFIDQLDNDLQDIKKKK (not fully specified (C-terminus)) [KDFC16+9-NH2, group C peptide, net charge +9 e; 89]	99.28 ± 1.2	98.3 ± 5.2	97.4 ± 9.3	78.2 ± 4.5	0.8	–	–	0.8	15	0.4	4	> 50	10	–	–	–	–	–	–
KKKKLKKILKKLFQFIDQLINDLQNIKKKK-NH2 [KDFA5+11-NH2]	–	101.6 ± 1.4	78.0 ± 4.3	38.6 ± 3.5	1.6	–	–	–	–	–	–	> 50	–	1.6	–	–	–	–	–
KKKKLKKILKKLFQFINQLDNQLQDIKKKK-NH2 [KDFA2i+11-NH2]	–	–	–	–	0.2	–	–	–	–	–	–	> 50	–	0.2	1.4	1.9	1.4	3.8	–
KKKKLKKILKKLFQFINQLDNQLQDIKQNK-NH2 [KDFA2i+9-NH2]	–	–	–	–	0.8	–	–	–	–	–	–	> 50	–	0.8	–	–	–	–	4.01
KKKKLKKILKKLFQFINQLIDDLDDIKKKK-NH2 [KDFC21+9-NH2]	102.2 ± 1.1	99.4 ± 1.6	78.2 ± 1.2	–	3.1	–	< 4.30	–	–	–	–	–	–	3.1	–	–	–	–	–
